Values of other authors, collected in paper PMC8674134, “Safety and efficacy of avapritinib in advanced systemic mastocytosis: the phase 1 EXPLORER trial” (Nature Medicine, 2021).

How the values were obtained:
[1] = test system: KIT D816V; parameters: method as in PMID 16779792, PMID 15166033, PMID 19193436; conditions: cited from earlier work
[2] = test system: advanced systemic mastocytosis (AdvSM); parameters: method as in PMID 32392175; conditions: post hoc exploratory analysis of pivotal phase 2 study; cited from earlier work
[3] = test system: mast cell leukemia (MCL); parameters: method as in PMID 27355533; conditions: patients with MCL; 95% CI, 6–54%; cited from earlier work

Structure (SMILES) | Activity against KIT D816V [1] | CR rate by IWG-MRT-ECNM criteria [2] | Responses by IWG-MRT-ECNM criteria, patients [2] | 24-month OS [3]
Cc1ccc(NC(=O)c2ccc(CN3CCN(C)CC3)cc2)cc1Nc1nccc(-c2cccnc2)n1 [Imatinib] | lacks activity | – | – | –
CO[C@@H]1[C@H](N(C)C(=O)c2ccccc2)C[C@H]2O[C@]1(C)n1c3ccccc3c3c4c(c5c6ccccc6n2c5c31)C(=O)NC4 [midostaurin] | – | 2% | 28% | 26%
